# What was measured:
# [1] = Drug release from stent coatings, Vankel Bio-Dis release rate tester, HPLC; format: physicochemical; conditions: fluid-treated coating, Example 3
# Protocol: The drug-coated stents were placed on stent holders of a Vankel Bio-Dis release rate tester (Vankel, Inc., Cary, N.C.). 3 stents from each test group were dipped into an artificial medium for about 1 hour to extract the 40-O-(2-hydroxy)ethyl-rapamycin from the stent coatings. The artificial medium included phosphate buffer saline solution (10 mM, pH 7.4) and 1% TRITON X-100 Sigma Corporation) which stabilizes the 40-O-(2-hydroxy)ethyl-rapamycin in the testing solution. Each stent was tested in a separate testing solution to prevent cross-contamination. After extraction, each of the solutions was separately analyzed for the amount of drug released from the stent coatings by high pressure liquid chromatography (HPLC). The HPLC system consisted of a Waters 2690 system. After the drug solutions were analyzed by HPLC, the results were quantified by comparing the release rate results with a reference standard.
# Each of the stents was then dipped in fresh extraction solutions for another 6 hours (7 hours total). The solutions were analyzed by HPLC as described above. […] The solutions were again analyzed by HPLC as described above.
# The drug release profile could then be generated by plotting cumulative drug released in the medium vs. time. The percentage of drug released at a specific time was determined by comparing the cumulative drug released with the total content data. […]
# [2] = Release of 40-O-(2-hydroxy)ethyl-rapamycin from a standard polymeric coating in release media; format: physicochemical; conditions: in about 24 hours, certain release media
structure (smiles),measurement,setting,value
CO[C@H]1C[C@@H]2CC[C@@H](C)[C@@](O)(O2)C(=O)C(=O)N2CCCC[C@H]2C(=O)O[C@H]([C@H](C)C[C@@H]2CC[C@@H](OCCO)[C@H](OC)C2)CC(=O)[C@H](C)/C=C(\C)[C@@H](O)[C@@H](OC)C(=O)[C@H](C)C[C@H](C)/C=C/C=C/C=C/1C [40-O-(2-hydroxy)ethyl-rapamycin],decrease of release rate as compared to a control group,[1],about 50%
same,release rate from a standard polymeric coating,[2],greater than 50%

# — US7989018B2, “Fluid treatment of a polymeric coating on an implantable medical device” (Advanced Cardiovascular Systems, Inc., priority 2001, dated 2011)
